From patent US20160363588A1, “URINE SAMPLE ANALYSIS METHOD AND REAGENT KIT FOR URINE SAMPLE ANALYSIS” (SYSMEX CORPORATION, priority 2014, published 2016)

Tests used:
Escherichia coli = conditions: E. coli, 1000 ppm acetic acid aqueous solution
Method: (§1) In this example, the antimicrobial activity of acetic acid against various bacteria was evaluated. As a control, a saline was used. The antimicrobial activity was evaluated on the basis of the number of colonies of the bacterium on the solid culture medium.
(§2) To each of an acetic acid aqueous solution and a saline, various species of bacteria were added to a concentration of 1×10^5 cells/mL to obtain bacterial suspensions. Each 100 μL was taken from the obtained bacterial suspensions, and these were taken as samples at day 0 of culture. The remaining bacterial suspensions were cultured for 7 days at 37° C. for E. coli and S. aureus and at 25° C. for P. aeruginosa, and each 100 μL was taken from the obtained bacterial suspensions as samples at day 7 of culture. Each 100 μL of the sample was coated on a heart infusion agar culture medium, and cultured at the respective culture temperatures. The culture time was 20 hours for E. coli, 24 hours for S. aureus and 48 hours for P. aeruginosa. After culturing, the number of colonies on the agar culture medium was counted, and the bacterial number (CFU/mL) was calculated.

Pseudomonas aeruginosa = conditions: P. aeruginosa, 1000 ppm acetic acid aqueous solution
Method: as §1, §2

Staphylococcus aureus = conditions: S. aureus, 1000 ppm acetic acid aqueous solution
Method: as §1, §2

SMILES: CC(=O)O [acetic acid]
- Bacterial number At day 7 (Escherichia coli; cultured 7 days at 37° C.): 0 CFU/mL
- proliferation of bacteria in the solution (Escherichia coli; culturing for 7 days): cannot be proliferated
- Bacterial number At day 0 (Escherichia coli; day 0 of culture): 1000 CFU/mL
- Bacterial number At day 7 (Pseudomonas aeruginosa; cultured 7 days at 25° C.): 0 CFU/mL
- proliferation of bacteria in the solution (Pseudomonas aeruginosa; culturing for 7 days): cannot be proliferated
- Bacterial number At day 0 (Pseudomonas aeruginosa; day 0 of culture): 1000 CFU/mL
- Bacterial number At day 7 (Staphylococcus aureus; cultured 7 days at 37° C.): 0 CFU/mL
- proliferation of bacteria in the solution (Staphylococcus aureus; culturing for 7 days): cannot be proliferated
- Bacterial number At day 0 (Staphylococcus aureus; day 0 of culture): 1000 CFU/mL
